From US11083717B2, “Compositions and methods for drug sensitization of parasites” (The Texas A&M University System, priority 2015, dated 2021)
Like-named read-outs stand apart in the source and are kept apart here.

Tests used:
[1] = test system: S. cerevisiae; test: in vitro; conditions: Saccharomyces cerevisiae
[2] = test system: human fibroblast; test: in vitro

Row | SMILES | concentrations at which not toxic, S. cerevisiae cytotoxicity testing [1] [µM] | concentrations at which not toxic, human fibroblast cytotoxicity testing ([2]; human) [µM] | concentrations at which not toxic, human fibroblast cytotoxicity testing [2] [µM]
1 | CC(C(=O)N1CCN(C2COC2)CC1)c1ccc(Oc2nc3ccc(Cl)cc3s2)cc1 (stereo not drawn) [NZ-513, 2-{4-[(6-chloro-1,3-benzothiazol-2-yl)oxy]phenyl}-1-[4-(oxetan-3-yl)piperazin-1-yl]propan-1-one] | ≥ 100 | ≥ 100 | 
2 | COc1ccc2nc(Oc3ccc(C(C)C(=O)O)cc3)sc2c1 (stereo not drawn) [NZ-334] | ≥ 100 | ≥ 100 | 
3 | O=C(O)Cc1ccc(Oc2nc3ccc(Cl)cc3s2)cc1 [NZ-287, 2-{4-[(6-chloro-1,3-benzothiazol-2-yl)oxy]phenyl}acetic acid] | ≥ 100 | ≥ 100 | 
4 | CC(C)NC(=O)COc1ccc(Oc2cnc3cc(Cl)ccc3n2)cc1 [NZ-307, 2-{4-[(6-chloroquinoxalin-2-yl)oxy]phenoxy}-N-(propan-2-yl)acetamide] | ≥ 100 |  | ≥ 100
5 | CNC(=O)Cc1ccc(Oc2cnc3cc(Cl)ccc3n2)cc1O [NZ-402, 2-{4-[(6-chloroquinoxalin-2-yl)oxy]-2-hydroxyphenyl}-N-methylacetamide] | ≥ 100 |  | ≥ 100
6 | CONC(=O)c1cc2ccc(Oc3ccccc3)cc2oc1=O [NZ-320, N-methoxy-2-oxo-7-phenoxy-2H-chromene-3-carboxamide] | ≥ 100 | ≥ 100 | 
7 | CC(C)(C)OC(=O)Nc1ccc(Oc2cnc3cc(Cl)ccc3n2)cc1 [NZ-321, tert-butyl N-{4-[(6-chloroquinoxalin-2-yl)oxy]phenyl}carbamate] | ≥ 100 | ≥ 100 | 
8 | O=C(Nc1ccc(Oc2nc3ccc(Cl)cc3s2)cc1)N1CCNCC1 [NZ-509, N-{4-[(6-chloro-1,3-benzothiazol-2-yl)oxy]phenyl}piperazine-1-carboxamide] | ≥ 100 | ≥ 100 | 
9 | CC(C(=O)O)c1ccc(Oc2nc3ccc(Cl)cc3s2)cc1 (stereo not drawn) [NZ-312, 2-{4-[(6-chloro-1,3-benzothiazol-2-yl)oxy]phenyl}propanoic acid] | ≥ 100 | ≥ 100 | 
10 | CC(C)NC(=O)Nc1ccc(Oc2nc3ccc(C#N)cc3s2)cc1 [NZ-377, 1-{4-[(6-cyano-1,3-benzothiazol-2-yl)oxy]phenyl}-3-(propan-2-yl)urea] | ≥ 100 |  | ≥ 100
11 | CC(C(=O)O)c1ccc(Oc2cnc3cc(Cl)ccc3n2)cc1 (stereo not drawn) [NZ-309, 2-{4-[(6-chloroquinoxalin-2-yl)oxy]phenyl}propanoic acid] | ≥ 100 | ≥ 100 | 
12 | CONC(=O)Cc1ccc(Oc2cnc3cc(Cl)ccc3n2)cc1 [NZ-301, 2-{4-[(6-chloroquinoxalin-2-yl)oxy]phenyl}-N-methoxyacetamide] | ≥ 100 |  | ≥ 100
13 | CC(C)NC(=O)Nc1ccc(Oc2nc3cc(Cl)ccc3s2)cc1 [NZ-376, 1-{4-[(5-chloro-1,3-benzothiazol-2-yl)oxy]phenyl}-3-(propan-2-yl)urea] | ≥ 100 |  | ≥ 100
14 | CC(C)(C)OC(=O)NCCC(=O)Nc1ccc(Oc2nc3ccc(F)cc3s2)cc1 [NZ-414, tert-butyl N-[2-({4-[(6-fluoro-1,3-benzothiazol-2-yl)oxy]phenyl}carbamoyl)ethyl]carbamate] | ≥ 100 | ≥ 100 | 
15 | CC(C(=O)O)c1ccc(Oc2nc3ccc(F)cc3s2)cc1 (stereo not drawn) [NZ-329, 2-{4-[(6-fluoro-1,3-benzothiazol-2-yl)oxy]phenyl}propanoic acid] | ≥ 100 | ≥ 100 | 
16 | CONC(=O)C(C)(C)Oc1ccc(Oc2nc3ccc(Cl)cc3s2)cc1 [NZ-319, 2-{4-[(6-chloro-1,3-benzothiazol-2-yl)oxy]phenoxy}-N-methoxy-2-methylpropanamide] | ≥ 100 | ≥ 100 | 
17 | CCOC(=O)[C@@H](C)Oc1ccc(Oc2nc3ccc(F)cc3s2)cc1 [NZ-251, ethyl (2R)-2-{4-[(6-fluoro-1,3-benzothiazol-2-yl)oxy]phenoxy}propanoate] | ≥ 100 | ≥ 100 | 
18 | COC(=O)Cc1ccc(Oc2nc3ccc(F)cc3s2)cc1 [NZ-294, methyl 2-{4-[(6-fluoro-1,3-benzothiazol-2-yl)oxy]phenyl}acetate] | ≥ 100 | ≥ 100 | 
19 | CONC(=O)Cc1ccc(Oc2nc3ccc(F)cc3s2)cc1 [NZ-300, 2-{4-[(6-fluoro-1,3-benzothiazol-2-yl)oxy]phenyl}-N-methoxyacetamide] | ≥ 100 |  | ≥ 100
20 | CC(C(=O)NCC(O)CO)c1ccc(Oc2cnc3cc(Cl)ccc3n2)cc1 (stereo not drawn) [NZ-534, 2-{4-[(6-chloroquinoxalin-2-yl)oxy]phenyl}-N-(2,3-dihydroxypropyl)propanamide] | ≥ 100 | ≥ 100 | 
21 | CC(C)(Oc1ccc(Oc2nc3ccc(Cl)cc3s2)cc1)C(=O)O [NZ-318, 2-{4-[(6-chloro-1,3-benzothiazol-2-yl)oxy]phenoxy}-2-methylpropanoic acid] | ≥ 100 |  | ≥ 100
